These results are taken from patent US11034725B2, “Compositions and methods for treating cardiovascular disease” (Genentech, Inc., priority 2016, dated 2021).

Read-outs that look alike come from different tables or passages of the source. Bridge positions count the residues as written; N and C are the ends. Square brackets hold non-standard residues; d marks the D form. Peptide text beside a SMILES is read from it. * marks the point of attachment. Trp(6-Cl) = N[C@@H](Cc1c[nH]c2cc(Cl)ccc12)C(=O)O; Trp(6-F) = N[C@@H](Cc1c[nH]c2cc(F)ccc12)C(=O)O; hArg = N=C(N)NCCCC[C@H](N)C(=O)O; Pentanoyl = CCCCC(=O)* Some results are limits rather than exact numbers.

The target in assay [1] is T1, PCSK9Δhelix (Homo sapiens, UniProt Q8NBP7).
T1 construct: Human PCSK9 construct M1-Q692 with an engineered TEV site (residue deletion Y166, R167); made in house; host or cells: CHO
Kind of assay: PCSK9Δhelix/Ab20 TR-FRET binding assay. The following applies: TR-FRET, read-out: PCSK9Δhelix/Ab20 IC50.
Description: The former was based on a TF-FRET assay to measure the association of the EGF(A) domain of the LDLR to PCSK9 (“PCSK9/EGF(A) binding assay”) whilst the latter was based on a TR-FRET assay to measure binding of Ab20 to PCSK9Δhelix (“PCSK9Δhelix/Ab20 binding assay”).
The ability of compounds to inhibit binding to PCSK9 was evaluated with a panel of time-resolved fluorescence resonance energy transfer (TR-FRET) binding assays. […] The PCSK9Δhelix/Ab20 binding assay evaluated the ability of compounds to compete with Ab20 for binding to the N-terminal groove region in a His-tagged, PCSK9Δhelix construct. […] Signal generation in the PCSK9 binding assays was dependent upon the binding interaction to bring into close proximity the His-tag on the PCSK9 and the Fc-tag on the ligand. Anti-His-APC was bound to the His-tag, and anti-Fc-europium was bound to the Fc-tag. When these two antibodies were in close proximity and were irradiated with light at 340 nm, the europium was excited and emitted energy at 615 nm. This energy was taken up by the APC and was emitted as light at 665 nm. Compounds that competed with the ligand reduced the energy transfer and thus the emission at 665 nm. In the His-EGFA-Fc molecule in the counterscreen, the two tags were always in close proximity, thus any reduction in emission at 665 nm was due to interference with the detection system.
Compounds were solubilized and dilutions were prepared in DMSO. […] The plate was centrifuged to mix the well contents and allowed to incubate for 30 min. […] The TR-FRET signal was read on a ViewLux reader (PerkinElmer) with excitation at 340 nm and emission at 615 and 665 nm with a 50-μs time delay between excitation and measurement of emission. The TR-FRET ratio was calculated as the fluorescence emission at 665 nm divided by the fluorescence emission at 615 nm. The normalized TR-FRET ratios were plotted as a function of the compound concentrations, and the IC50 values were determined using a 4-parameter logistic regression.
In black 1536-well assay plates (MaKO, Aurora® Microplates, Whitefish, Mont.), 40 nL of peptide in DMSO were preincubated with 2 μL His-tagged PCSK9 plus anti-His-allophycocyanin in assay buffer (50 mM Tris-HCl, pH 7.5, 150 mM NaCl, 2 mM CaCl2, 0.01% Tween®-20, 0.1% bovine gamma globulins, and protease inhibitor cocktail) for 30 min. Then 2 μL of Fc-tagged ligand and anti-Fc-europium in assay buffer were added and allowed to incubate for 2 h.

For assay [2], the target named is PCSK9 (Homo sapiens, UniProt Q8NBP7). Kind of assay: PCSK9/EGF(A) TR-FRET binding assay. The following applies: TR-FRET, read-out: PCSK9/EGF(A) IC50.
The subject of assay [3] is His-EGF(A)-Fc. Kind of assay: His-EGF(A)-Fc TR-FRET counterscreen. On the technique in general: TR-FRET usually uses a lanthanide donor and a delayed reading to cut background.
[4] abbreviates: TR-FRET counterscreen, Table 8E, additional compounds.

Chain of PCSK9 (Q8NBP7 153-692): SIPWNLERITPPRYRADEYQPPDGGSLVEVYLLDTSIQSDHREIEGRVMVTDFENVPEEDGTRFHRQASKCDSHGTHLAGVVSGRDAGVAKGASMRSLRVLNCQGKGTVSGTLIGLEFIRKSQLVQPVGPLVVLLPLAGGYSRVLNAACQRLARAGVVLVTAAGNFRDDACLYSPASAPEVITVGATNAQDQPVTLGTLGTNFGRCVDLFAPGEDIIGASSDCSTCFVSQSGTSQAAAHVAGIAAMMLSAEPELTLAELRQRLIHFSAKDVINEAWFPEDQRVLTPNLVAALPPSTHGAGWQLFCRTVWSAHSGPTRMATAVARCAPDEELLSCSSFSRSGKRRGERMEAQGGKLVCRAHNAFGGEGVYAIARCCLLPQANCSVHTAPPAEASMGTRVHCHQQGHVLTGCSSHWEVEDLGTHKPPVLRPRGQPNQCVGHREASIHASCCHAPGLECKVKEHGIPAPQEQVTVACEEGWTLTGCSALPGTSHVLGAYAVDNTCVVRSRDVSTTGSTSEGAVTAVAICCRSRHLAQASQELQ
Chain of PCSK9 (Q8NBP7 31-152 partner limits assumed): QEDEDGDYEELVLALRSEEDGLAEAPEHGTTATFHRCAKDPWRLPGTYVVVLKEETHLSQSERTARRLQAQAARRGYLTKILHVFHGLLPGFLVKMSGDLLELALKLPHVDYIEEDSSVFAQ
T1 sequence (Q8NBP7 with tags, fused parts or gaps limits assumed): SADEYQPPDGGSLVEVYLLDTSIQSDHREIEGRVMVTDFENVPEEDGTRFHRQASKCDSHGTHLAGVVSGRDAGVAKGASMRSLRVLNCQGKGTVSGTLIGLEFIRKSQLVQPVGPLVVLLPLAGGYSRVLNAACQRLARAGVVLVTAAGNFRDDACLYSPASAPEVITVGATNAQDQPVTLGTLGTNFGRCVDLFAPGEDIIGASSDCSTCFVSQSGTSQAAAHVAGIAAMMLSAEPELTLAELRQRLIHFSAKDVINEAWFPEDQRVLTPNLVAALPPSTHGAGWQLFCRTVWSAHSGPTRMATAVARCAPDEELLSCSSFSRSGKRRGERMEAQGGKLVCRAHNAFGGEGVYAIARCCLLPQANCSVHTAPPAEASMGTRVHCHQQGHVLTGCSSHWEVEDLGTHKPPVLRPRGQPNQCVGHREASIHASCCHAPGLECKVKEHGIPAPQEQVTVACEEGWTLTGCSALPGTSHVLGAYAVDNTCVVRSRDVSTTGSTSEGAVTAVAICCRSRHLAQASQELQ
T1 sequence (Q8NBP7 31-152 partner limits assumed): as the sequence (Q8NBP7 31-152 partner limits assumed) above

Take `CCCCC(=O)N[C@@H](Cc1c[nH]c2cc(Cl)ccc12)C(=O)N[C@@H](CC(N)=O)C(=O)N[C@@H](CC(C)C)C(=O)N[C@H](C(=O)N[C@@H](CCCNC(=N)N)C(=O)N[C@H](C(=O)NCC(=O)N[C@@H](CC(C)C)C(=O)N[C@H](C(=O)N[C@@H](CCCNC(=N)N)C(N)=O)[C@@H](C)O)[C@@H](C)CC)C(C)C` [Compound 186] (Pentanoyl-[Trp(6-Cl)]NLVRIGLTR-NH2): the IC50 was found to be 11 µM in assay [1] (Table 8E, additional compounds); 31 µM in assay [2] (Table 8E, additional compounds); 46 µM in assay [3] (setting [4]).

Take `CCCCC(=O)N[C@@H](Cc1c[nH]c2ccccc12)C(=O)N[C@@H](CC(N)=O)C(=O)N[C@@H](CC(C)C)C(=O)N[C@H](C(=O)N[C@@H](CCCCNC(=N)N)C(=O)N[C@H](C(=O)NCC(=O)N[C@@H](CC(C)C)C(=O)N[C@@H](CC(C)C)C(=O)N[C@@H](CCCNC(=N)N)C(=O)O)[C@@H](C)CC)C(C)C` [Compound 195, n-BuC(O)-WNLV(homoR)IGLLR] (Pentanoyl-WNLV[hArg]IGLLR-OH): the IC50 in assay [1] (Table 8E, additional compounds) is 1.7 µM; in assay [2] (Table 8E, additional compounds) it was 22 µM; in assay [3] (setting [4]), 45 µM.

For `CC[C@H](C)[C@H](NC(=O)[C@H](CCCCNC(=N)N)NC(=O)[C@H](CCCCN)NC(=O)[C@H](CC(C)C)NC(=O)[C@H](CC(N)=O)NC(=O)[C@H](Cc1c[nH]c2ccccc12)NC(=O)CNC(=O)[C@@H]1CCCN1C(=O)[C@H](Cc1ccccc1)NC(=O)[C@H](C)NC(=O)[C@H](Cc1ccccc1)NC(=O)[C@H](CO)NC(C)=O)C(=O)NCC(=O)N[C@@H](CC(C)C)C(=O)N[C@@H](CC(C)C)C(=O)N[C@@H](CCCNC(=N)N)C(N)=O` [Compound 232] (Ac-SFAFPGWNLK[hArg]IGLLR-NH2), the IC50 was 13 µM in assay [1] (Table 8E, additional compounds); 0.93 µM in assay [2] (Table 8E, additional compounds); at least 50 µM in assay [3] (setting [4]).

For the molecule `CCCCC(=O)N[C@@H](Cc1c[nH]c2ccccc12)C(=O)N[C@@H](CC(N)=O)C(=O)N[C@@H](CC(C)C)C(=O)N[C@H](C(=O)N[C@@H](CCCCNC(=N)N)C(=O)N[C@H](C(=O)NCC(=O)N[C@@H](CC(C)C)C(=O)N[C@H](C(=O)N[C@@H](CCCNC(=N)N)C(N)=O)[C@@H](C)O)[C@@H](C)CC)C(C)C` [Compound 234, n-BuC(O)-WNLV(homoR)IGLTR-NH2] (Pentanoyl-WNLV[hArg]IGLTR-NH2), the IC50 in assay [1] (Table 8E, additional compounds) is 1.4 µM; in assay [2] (Table 8E, additional compounds), at least 50 µM; in assay [3] (setting [4]), at least 50 µM.

Turning to `CCCCC(=O)N[C@@H](Cc1c[nH]c2ccccc12)C(=O)N[C@@H](CC(N)=O)C(=O)N[C@@H](CC(C)C)C(=O)N[C@H](C(=O)N[C@@H](CCCCNC(=N)N)C(=O)N[C@H](C(=O)NCC(=O)N[C@@H](CC(C)C)C(=O)N[C@H](C(=O)N[C@@H](CCCNC(=N)N)C(=O)O)[C@@H](C)O)[C@@H](C)CC)C(C)C` [Compound 235, n-BuC(O)-WNLV(homoR)IGLTR] (Pentanoyl-WNLV[hArg]IGLTR-OH), the IC50 was 2.7 µM in assay [1] (Table 8E, additional compounds); at least 50 µM in assay [2] (Table 8E, additional compounds); at least 50 µM in assay [3] (setting [4]).

Take `CC[C@H](C)[C@H](NC(=O)[C@H](CCCCNC(=N)N)NC(=O)[C@@H](NC(=O)[C@H](CC(C)C)NC(=O)[C@H](CC(N)=O)NC(=O)[C@@H](N)Cc1c[nH]c2ccccc12)C(C)C)C(=O)NCC(N)=O` [Compound 236, WNLV(homoR)IG-NH2] (H-WNLV[hArg]IG-NH2): the IC50 in assay [1] (Table 8E, additional compounds) is 22 µM; in assay [2] (Table 8E, additional compounds) it was at least 50 µM; in assay [3] (setting [4]), at least 50 µM.

As for `CC[C@H](C)[C@H](NC(=O)[C@H](CCCCNC(=N)N)NC(=O)[C@@H](NC(=O)[C@H](CC(C)C)NC(=O)[C@H](CC(N)=O)NC(=O)[C@@H](N)Cc1c[nH]c2ccccc12)C(C)C)C(=O)NCC(=O)N[C@@H](CC(C)C)C(=O)N[C@@H](CC(C)C)C(=O)N[C@@H](CCC(N)=O)C(N)=O` [Compound 237, WNLV(homoR)IGLLQ-NH2] (H-WNLV[hArg]IGLLQ-NH2), the IC50 stood at 0.33 µM in assay [1] (Table 8E, additional compounds); 8.8 µM in assay [2] (Table 8E, additional compounds); 46 µM in assay [3] (setting [4]).

With `CC[C@H](C)[C@@H]1NC(=O)[C@H](CCCNC(=N)N)NC(=O)[C@H](CCC(N)=O)NC(=O)[C@H](CC(C)C)NC(=O)[C@H](CC(N)=O)NC(=O)[C@H](Cc2c[nH]c3ccccc23)NC(=O)[C@@H]2CCCN2C(=O)[C@H](CC(C)C)NC(=O)[C@H](CCCNC(=N)N)NC(=O)[C@@H](NC(=O)CNC(=O)[C@H](CO)NC(=O)CNC(=O)[C@@H](NC(=O)[C@H](Cc2c[nH]c3ccccc23)NC(=O)[C@H](CC(=O)O)NC(=O)[C@H](CC(C)C)NC(=O)[C@H](Cc2ccc(O)cc2)NC(=O)[C@H](CCC(=O)O)NC(=O)[C@H](CCC(=O)O)NC(=O)[C@H](Cc2c[nH]c3cc(F)ccc23)NC(=O)[C@H](CO)NC(=O)[C@@H](NC(=O)[C@H](Cc2ccccc2)NC(=O)[C@@H](NC(=O)[C@@H](NC(C)=O)[C@@H](C)O)C(C)C)[C@@H](C)O)C(C)C)CSSC[C@@H](C(N)=O)NC(=O)[C@@H]2CCCN2C(=O)[C@H](CC(C)C)NC(=O)CNC1=O` [Compound 241] (Ac-TVFTS[Trp(6-F)]EEYLDWVGSGCRLPWNLQRIGLPC-NH2; disulfide 17-30 (inferred)), the IC50 in assay [1] (Table 8E, additional compounds) was 0.1 µM; in assay [2] (Table 8E, additional compounds), 1.6 µM; in assay [3] (setting [4]), at least 50 µM.

For the molecule Ac-DAMPWNLVRIGLLR-NH2 [Compound 44], the IC50 in assay [1] (Example 7) is 6.9 µM; in assay [2] (Example 7) it was over 50 µM; in assay [3] (counterscreen, Example 7), over 50 µM.

As to Ac-DLAPWNLVRIGLLR-NH2 [Compound 43], the IC50 in assay [1] (Example 7) was 8.19 µM; in assay [2] (Example 7), over 50 µM; in assay [3] (counterscreen, Example 7) it was over 50 µM.

Consider Ac-DLMAWNLVRIGLLR-NH2 [Compound 42], for which the IC50 in assay [1] (Example 7) was 28.5 µM; in assay [2] (Example 7), over 50 µM; in assay [3] (counterscreen, Example 7) it was over 50 µM.

Turning to Ac-DLMPANLVRIGLLR-NH2 [Compound 41], the IC50 in assay [1] (Example 7) was over 49.5 µM; in assay [2] (Example 7), over 50 µM; in assay [3] (counterscreen, Example 7) it was over 50 µM.

With Ac-DLMPWALVRIGLLR-NH2 [Compound 62], the IC50 in assay [1] (Example 7) was over 49.5 µM; in assay [2] (Example 7), over 50 µM; in assay [3] (counterscreen, Example 7) it was over 50 µM.

For Ac-DLMPWNAVRIGLLR-NH2 [Compound 61], the IC50 in assay [1] (Example 7) was over 49.5 µM; in assay [2] (Example 7) it was over 50 µM; in assay [3] (counterscreen, Example 7) it was over 50 µM.

Consider Ac-DLMPWNLARIGLLR-NH2 [Compound 60], for which the IC50 was 19.2 µM in assay [1] (Example 7); over 50 µM in assay [2] (Example 7); over 50 µM in assay [3] (counterscreen, Example 7).

Consider Ac-DLMPWNLKRIGLLR-NH2 [Compound 158], for which the IC50 in assay [1] (Table 8E, additional compounds) is 12 µM; in assay [2] (Table 8E, additional compounds), at least 50 µM; in assay [3] (setting [4]), at least 50 µM.

As for Ac-DLMPWNLVAIGLLR-NH2 [Compound 59], the IC50 in assay [1] (Example 7) was over 49.5 µM; in assay [2] (Example 7) it was over 50 µM; in assay [3] (counterscreen, Example 7), over 50 µM.

On to Ac-DLMPWNLVRAGLLR-NH2 [Compound 58], for which the IC50 in assay [1] (Example 7) is over 49.5 µM; in assay [2] (Example 7), over 50 µM; in assay [3] (counterscreen, Example 7) it was over 50 µM.

For Ac-DLMPWNLVRI-NH2 [Compound 49], the IC50 in assay [1] (Example 7) is at least 49.5 µM; in assay [2] (Example 7), over 50 µM; in assay [3] (counterscreen, Example 7), over 50 µM.

For the molecule Ac-DLMPWNLVRIALLR-NH2 [Compound 57], the IC50 was over 49.5 µM in assay [1] (Example 7); over 50 µM in assay [2] (Example 7); over 50 µM in assay [3] (counterscreen, Example 7).

Consider Ac-DLMPWNLVRIG-NH2 [Compound 48], for which the IC50 was at least 49.5 µM in assay [1] (Example 7); over 50 µM in assay [2] (Example 7); over 50 µM in assay [3] (counterscreen, Example 7).

As for Ac-DLMPWNLVRIGALR-NH2 [Compound 56], the IC50 in assay [1] (Example 7) was 17.1 µM; in assay [2] (Example 7), over 50 µM; in assay [3] (counterscreen, Example 7), over 50 µM.

For the molecule Ac-DLMPWNLVRIGL-NH2 [Compound 47], the IC50 in assay [1] (Example 7) is 12.6 µM; in assay [2] (Example 7), over 50 µM; in assay [3] (counterscreen, Example 7), over 50 µM.
